≈ marks a conversion by molar mass, not a printed value.
Key:
Assay in all cases: in vitro antibacterial evaluation, MIC by broth dilution
Type in all cases: cell-based
Enterococcus sp. = conditions: broth dilution, 18 hours at 35° C.
Procedure, shortened: (§1)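 MIC, the lowest antibiotic concentration preventing growth, was read across 64-0.06 μg/mL with 5×10^5 CFU/mL inoculum. Method followed NCCLS M7-A2 broth dilution using Mueller-Hinton II; Gram-positive strains covered recent methicillin-, penicillin- and/or vancomycin-resistant clinical isolates.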

Staphylococcus sp. = conditions: broth dilution, 18 hours at 35° C.; for MIC Staphylococcus aureus (GC 1131): strain GC 1131
Procedure, shortened: as §1

Streptococcus sp. = conditions: broth dilution, 18 hours at 35° C.
Procedure, shortened: as §1

Escherichia coli = tested on: Escherichia coli
Procedure, shortened: as §1

## COc1cccc(C2OC3C(OC4C(CO)OC(Oc5ccc(CC6NC(=O)C(C(C)c7ccccc7)NC(=O)CNC(=O)C(CO)NC(=O)C(C(O)C7CNC(=N)N7C7OC(CO)C(O)C(O)C7O)NC(=O)C(C(O)C7CNC(=N)N7)NC6=O)cc5)C(O)C4O)OC(CO)C(O)C3O2)c1 (single isomer, unassigned) [Example 137a, Cyclo[glycyl-β-methylphenylalanyl-O-[4-O-[2,3-O-(3-methoxybenzylidene)hexopyranosyl]-hexopyranosyl]tyrosyl-3-(2-iminoimidazolidin-4-yl)seryl-3-(3-hexopyranosyl-2-iminoimidazolidin-4-yl)serylseryl]]
Enterococcus sp.; Enterococcus avium (GC 4558)
  MIC Enterococcus avium (GC 4558): 64 µg/mL (≈ 45.3 µM)
Enterococcus sp.; Enterococcus faecalis (ATCC 29212)
  MIC Enterococcus faecalis (ATCC 29212): >64 µg/mL
Enterococcus sp.; Enterococcus faecalis (GC 2242)
  MIC Enterococcus faecalis (GC 2242): >64 µg/mL
Enterococcus sp.; Enterococcus faecalis (GC 2691)
  MIC Enterococcus faecalis (GC 2691): >64 µg/mL
Enterococcus sp.; Enterococcus faecalis (GC 3059)
  MIC Enterococcus faecalis (GC 3059): >64 µg/mL
Enterococcus sp.; Enterococcus faecalis (GC 4552)
  MIC Enterococcus faecalis (GC 4552): >64 µg/mL
Enterococcus sp.; Enterococcus faecalis (GC 4553)
  MIC Enterococcus faecalis (GC 4553): >64 µg/mL
Enterococcus sp.; Enterococcus faecalis (GC 4554)
  MIC Enterococcus faecalis (GC 4554): >64 µg/mL
Enterococcus sp.; Enterococcus faecalis (GC 6189)
  MIC Enterococcus faecalis (GC 6189): >64 µg/mL
Enterococcus sp.; Enterococcus faecium (GC 2243)
  MIC Enterococcus faecium (GC 2243): >64 µg/mL
Enterococcus sp.; Enterococcus faecium (GC 4556)
  MIC Enterococcus faecium (GC 4556): >64 µg/mL
Enterococcus sp.; Enterococcus faecium (GC 4557)
  MIC Enterococcus faecium (GC 4557): 16 µg/mL (≈ 11.3 µM)
Enterococcus sp.; strain ATCC 29212
  MIC Enterococcus faecalis (ATCC 29212): >64 µg/mL
Enterococcus sp.; strain GC 2242
  MIC Enterococcus faecalis (GC 2242): >64 µg/mL
Enterococcus sp.; strain GC 2243
  MIC Enterococcus faecium (GC 2243): >64 µg/mL
Enterococcus sp.; strain GC 2691
  MIC Enterococcus faecalis (GC 2691): >64 µg/mL
Enterococcus sp.; strain GC 3059
  MIC Enterococcus faecalis (GC 3059): >64 µg/mL
Enterococcus sp.; strain GC 4552
  MIC Enterococcus faecalis (GC 4552): >64 µg/mL
Enterococcus sp.; strain GC 4553
  MIC Enterococcus faecalis (GC 4553): >64 µg/mL
Enterococcus sp.; strain GC 4554
  MIC Enterococcus faecalis (GC 4554): >64 µg/mL
Enterococcus sp.; strain GC 4556
  MIC Enterococcus faecium (GC 4556): >64 µg/mL
Enterococcus sp.; strain GC 4557
  MIC Enterococcus faecium (GC 4557): 16 µg/mL (≈ 11.3 µM)
Enterococcus sp.; strain GC 4558
  MIC Enterococcus avium (GC 4558): 64 µg/mL (≈ 45.3 µM)
Enterococcus sp.; strain GC 6189
  MIC Enterococcus faecalis (GC 6189): >64 µg/mL
Staphylococcus sp.; inoculum 5×10^5 CFU/mL
  MIC Staphylococcus aureus (GC 1131): 32 µg/mL (≈ 22.6 µM)
Staphylococcus sp.; strain ATCC 29213
  MIC Staphylococcus aureus (ATCC 29213): 32 µg/mL (≈ 22.6 µM)
Staphylococcus sp.
  MIC Staphylococcus aureus (GC 1131): 32 µg/mL (≈ 22.6 µM)
Staphylococcus sp.; strain GC 3051
  MIC Staphylococcus aureus (GC 3051): 32 µg/mL (≈ 22.6 µM)
Staphylococcus sp.; strain GC 3053
  MIC Staphylococcus aureus (GC 3053): 32 µg/mL (≈ 22.6 µM)
Staphylococcus sp.; strain GC 4541
  MIC Staphylococcus aureus (GC 4541): 16 µg/mL (≈ 11.3 µM)
Staphylococcus sp.; strain GC 4542
  MIC Staphylococcus aureus (GC 4542): 32 µg/mL (≈ 22.6 µM)
Staphylococcus sp.; strain GC 4543
  MIC Staphylococcus aureus-SMITH (GC 4543): 16 µg/mL (≈ 11.3 µM)
Staphylococcus sp.; strain GC 4544
  MIC Staphylococcus aureus (GC 4544): 32 µg/mL (≈ 22.6 µM)
Staphylococcus sp.; strain GC 4545
  MIC Staphylococcus aureus (GC 4545): 32 µg/mL (≈ 22.6 µM)
Staphylococcus sp.; strain GC 4546
  MIC Staphylococcus haemolyticus (GC 4546): 16 µg/mL (≈ 11.3 µM)
Staphylococcus sp.; strain GC 4547
  MIC Coagulase Negative Staphylococcus (GC 4547): 16 µg/mL (≈ 11.3 µM)
Staphylococcus sp.; strain GC 4548
  MIC Coagulase Negative Staphylococcus (GC 4548): 8 µg/mL (≈ 5.66 µM)
Staphylococcus sp.; strain GC 4549
  MIC Coagulase Negative Staphylococcus (GC 4549): 8 µg/mL (≈ 5.66 µM)
Staphylococcus sp.; strain GC 4551
  MIC Coagulase Negative Staphylococcus (GC 4551): 16 µg/mL (≈ 11.3 µM)
Staphylococcus sp.; strain GC 6257
  MIC Coagulase Negative Staphylococcus (GC 6257): 8 µg/mL (≈ 5.66 µM)
Staphylococcus sp.; strain SMITH GC 4543
  MIC Staphylococcus aureus-SMITH (GC 4543): 16 µg/mL (≈ 11.3 µM)
Streptococcus sp.; Streptococcus agalactiae (GC 4564)
  MIC Streptococcus agalactiae (GC 4564): 16 µg/mL (≈ 11.3 µM)
Streptococcus sp.; Streptococcus pneumoniae (ATCC 6301)
  MIC Streptococcus pneumoniae (ATCC 6301): 8 µg/mL (≈ 5.66 µM)
Streptococcus sp.; Streptococcus pneumoniae (GC 1894)
  MIC Streptococcus pneumoniae (GC 1894): 4 µg/mL (≈ 2.83 µM)
Streptococcus sp.; Streptococcus pneumoniae (GC 4565)
  MIC Streptococcus pneumoniae (GC 4565): 16 µg/mL (≈ 11.3 µM)
Streptococcus sp.; Streptococcus pyogenes (GC 4563)
  MIC Streptococcus pyogenes (GC 4563): 16 µg/mL (≈ 11.3 µM)
Streptococcus sp.; strain ATCC 6301
  MIC Streptococcus pneumoniae (ATCC 6301): 8 µg/mL (≈ 5.66 µM)
Streptococcus sp.; strain GC 1894
  MIC Streptococcus pneumoniae (GC 1894): 4 µg/mL (≈ 2.83 µM)
Streptococcus sp.; strain GC 4563
  MIC Streptococcus pyogenes (GC 4563): 16 µg/mL (≈ 11.3 µM)
Streptococcus sp.; strain GC 4564
  MIC Streptococcus agalactiae (GC 4564): 16 µg/mL (≈ 11.3 µM)
Streptococcus sp.; strain GC 4565
  MIC Streptococcus pneumoniae (GC 4565): 16 µg/mL (≈ 11.3 µM)
Escherichia coli; strain ATCC 25922, 18 hours at 35° C.
  MIC Escherichia coli (ATCC 25922): >64 µg/mL
Escherichia coli; strain GC 4559, 18 hours at 35° C.
  MIC Escherichia coli (GC 4559): >64 µg/mL
Escherichia coli; strain GC 4560, 18 hours at 35° C.
  MIC Escherichia coli (GC 4560): 8 µg/mL (≈ 5.66 µM)

Source: patent publication US6914045B2, “Glycopeptide antibiotics” (Wyeth Holdings Corporation, priority 2001, dated 2005)
